This is an account of results in the SangsterLogP compilation.

A short description of the data set: method code SF, from DOI: 10.1016/0223-5234(90)90141-o. Conditions: pH 7.4.
One may read the logD as the decadic logarithm of the distribution of all forms, ionised or not, between an organic phase and buffer at a given pH. Lower therefore signals a more hydrophilic compound. As for `COc1ccc(-c2nc3cnccc3o2)c(OC)c1`, the logD was determined as 2.42. As for `COc1cc(S(C)=O)ccc1-c1nc2cnccc2n1C` (stereo unspecified), the pH-dependent lipophilicity (logD) worked out at 2.15.

Regarding `COc1cc(S(C)=O)ccc1-c1nc2nccnc2[nH]1` (stereo unspecified), the logD was found to be 0.66. `COc1cc(S(C)=O)ccc1-c1nc2nnccc2[nH]1` (stereo unspecified) had a logD of 0.23.

For `COc1ccc(-c2nc3cnccc3n2C)c(OC)c1`, the logD stood at 2.66. Then `COc1ccc(-c2nc3ccncc3n2C)c(OC)c1`, with 2.68. Molecule `COc1cc(S(C)=O)ccc1-c1nc2cnncc2[nH]1` (stereo unspecified) yielded a logD of 0.39. Then `COc1cccc(OC)c1-c1nc2cnccc2[nH]1`, with 1.66; and `COc1cc(S(C)=O)ccc1-c1nc2ncncc2[nH]1` (stereo unspecified), with 0.53; and `COc1cc(S(C)=O)ccc1-c1nc2cnccc2[nH]1` (stereo unspecified), with 1.23. Then `COc1cc(S(C)=O)ccc1-c1nc2cnccc2s1` (stereo unspecified), with 2.21.
